Measured values from patent EP1242382B1, “TRICYCLIC PROTEIN KINASE INHIBITORS” (Wyeth, priority 1999, dated 2001).
pIC50: −log10 of the molar value. Converted amounts (≈) assume the structure as drawn.

Tests used:
[1] = target: T1, EGF-R Kinase (recombinant enzyme) (Homo sapiens, UniProt P00533); test: Inhibition of Epidermal Growth Factor Receptor Kinase (EGF-R) using recombinant enzyme; type: biochemical; settings: RR-SRC peptide substrate, (a) = average of two tests
T1 construct: EGFR cDNA encoding amino acids 645 - 1186 preceded by Met-Ala-(His)6; made in house; host or cells: Sf9 insect cells, recombinant baculovirus vHcEGFR52
Experimental: Representative test compounds are evaluated in a standard pharmacological test procedure to measure their ability to inhibit the phosphorylation of the tyrosine residue of a peptide substrate catalyzed by the enzyme epidermal growth factor receptor kinase. […] The enzyme used in this assay is the His-tagged cytoplasmic domain of EGFR. […] Sf9 cells in 100 mm plates are infected at a multiplicity of infection of 10 pfu/cell and cells are harvested 48 h post infection. A cytoplasmic extract is prepared using 1% Triton X-100 and applied to Ni-NTA column. After washing the column with 20 mM imidazole, HcEGFR is eluted with 250 mM imidazole (in 50 mM Na2HPO4, pH 8.0, 300 mM NaCl). Fractions collected are dialyzed against 10 mM HEPES, pH 7.0, 50 mM NaCl, 10% glycerol, 1ug/mL antipain and leupeptin and 0.1 mM Pefabloc SC. The protein is frozen in dry ice/methanol and stored -70°C.
Test compounds are made into 10 mg/mL stock solutions in 100% dimethylsulfoxide (DMSO). Prior to experiment, stock solutions are diluted to 500 uM with 100% DMSO and then serially diluted to the desired concentration with HEPES buffer (30 mM HEPES pH 7.4).
For the enzyme reaction, 10 uL of each inhibitor (at various concentrations) are added to each well of a 96-well plate. To this is added 3 uL of enzyme (1:10 dilution in 10mM HEPES, pH 7.4 for final conc. of 1:120). This is allowed to sit for 10 min on ice and is followed by the addition of 5 ul peptide (80 uM final conc.), 10ul of 4X Buffer containing 50 mM HEPES (pH 7.4), 200 mM Na3VO4, 40mM MnCl2, 80 uM ATP, 0.25 uL ^33P-ATP (>2500 Ci/mmol; Amersham) and 12 uL H2O. The reaction is allowed to run for 90 min at room temperature and is followed by spotting the entire volume onto precut P81 filter papers. The filter discs are washed 2X with 0.5% phosphoric acid and radioactivity is measured using a liquid scintillation counter.
The % inhibition of the test compound is determined for at least three different concentrations and the IC50 value is evaluated from the dose response curve. […] CPM(control) is in units of counts per minute and is a number expressing the amount of radiolabled ATP (γ-^33P) incorporated into the RR-SRC peptide substrate by the enzyme after 90 minutes at room temperature in the absence of test compound as measured by liquid scintillation counting. The CPM values are corrected for the background counts produced by ATP in the absence of the enzymatic reaction.

[2] = tested on: SW620; test: Inhibition of cancer cell growth as measured by cell number (Sulforhodamine B); type: cell-based; settings: Homo sapiens, SW-620; 48 hours exposure
Experimental: Human tumor cell lines are plated in 96-well plates (250 µl/well, 1-6 x 10^4 cells/ml) in RPMI 1640 medium, containing 5% FBS (Fetal Bovine Serum). Twenty four hours after plating, test compounds are added at various concentrations. After 48 hours exposure to test compounds, cells are fixed with trichloroacetic acid, and stained with Sulforhodamine B. After washing with trichloroacetic acid, bound dye is solubilized in 10 mM Tris base and optical density is determined using plate reader. Under conditions of the assay the optical density is proportional to the number of cells in the well. […] The test procedure is described in detail by Philip Skehan et. al, J. Natl. Canc. Inst., 82, 1107-1112 (1990). […] Information about some of the cell lines used in these test procedures is available from the American Type Tissue Collection: Cell Lines and Hybridomas, 1994 Reference Guide, 8th Edition.

T1 sequence (P00533 669-1210): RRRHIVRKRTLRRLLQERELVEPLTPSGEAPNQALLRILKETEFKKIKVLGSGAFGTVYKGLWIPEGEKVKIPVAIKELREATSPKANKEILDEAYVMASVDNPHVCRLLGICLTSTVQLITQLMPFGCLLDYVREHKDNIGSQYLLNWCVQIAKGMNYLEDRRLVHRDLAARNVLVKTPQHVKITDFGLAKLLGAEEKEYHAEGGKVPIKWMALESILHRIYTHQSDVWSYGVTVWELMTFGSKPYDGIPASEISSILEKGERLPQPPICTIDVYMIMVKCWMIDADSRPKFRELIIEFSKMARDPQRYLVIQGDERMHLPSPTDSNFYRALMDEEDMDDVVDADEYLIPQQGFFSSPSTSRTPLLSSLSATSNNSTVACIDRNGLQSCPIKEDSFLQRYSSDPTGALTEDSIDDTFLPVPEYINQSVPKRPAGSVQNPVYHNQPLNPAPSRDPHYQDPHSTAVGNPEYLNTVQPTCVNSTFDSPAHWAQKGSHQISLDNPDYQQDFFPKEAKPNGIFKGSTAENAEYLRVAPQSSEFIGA

pIC50 [1]: 8.28
IC50 [2]: 11.6 µg/mL (≈ 19.5 µM)
SMILES: COc1cc2cc3c(Nc4ccc(OCc5ccccc5)c(Cl)c4)c(C#N)cnc3cc2cc1OCCN1CCOCC1 [Example 218, 4-(4-Benzyloxy-3-chlorophenylamino)-7-methoxy-8-(2-morpholin-4-yl-ethoxy)benzo[g]quinoline-3-carbonitrile]
